# Read-outs that look alike come from different tables or passages of the source.
# Assays:
# [1] = water solubility; assay type: physicochemical
# Experimental: Despite the high water solubility of sodium ditriazoate and sodium methoxy coumarin (>1 mg/ml), WIN 67638 and WIN 67591 are sparingly soluble in water with solubility less than 0.01 mg/mL.
# By water soluble is meant greater than 1 mg/ml.
# [2] = blood pool imaging, vascular x-ray contrast by CT after intravenous injection; assay type: in vivo, New Zealand White rabbits; settings: 3 ml/kg via ear vein, CT at 5, 15, 30, 60, 120 min and 24 hours
# Experimental: (§1) 2.85 g of WIN 67591 (19.2%) were added to 30 ml of a solution of 5.2% BASF NF Grade Tetronic 908 (wt/vol %) in sterilized distilled water and approximately 100 ml of 1.1 mm zirconium silicate beads in a 250 ml bottle. The bottle was capped and rolled at approximately 140 rpm for 7 days at which time the average particle size was determined to be 173 nm. The suspension was separated from the beads and sent for intravenous injection as a vascular x-ray contrast agent. New Zealand White rabbits were used for this study and were injected via the ear vein at a dose of 3 ml/kg. Three animals were studied for times 5, 15, 30, 60, 120 min. and 24 hours. CT scanning was carried out using a Toshiba Model TCT-900S/x at the times indicated.
# [3] = mortality in biodistribution study in colon 33 tumor bearing mice; assay type: in vivo; settings: iv 0.2 ml/animal; during 48 hours treatment
# Experimental: (§2) A nanoparticulate formulation of 5% w/v […] in 3% polyoctylphenol (Tyloxopol) was prepared by ten days roller milling following the procedures similar to that of Example 9.
# (§3) A biodistribution study of the treatment of Example 5 was conducted by iv injections into colon 33 tumor bearing mice at 0.2 ml/animal. […] No dead mice were reported during the 48 hours treatment.
# [4] = average particle size of roller-milled nanoparticle suspension (light scattering / PCS); assay type: physicochemical
# Experimental: (§4) 0.75 g of WIN 67591, as prepared in Example 1, was added to approximately 30 ml of 1.1 mm zirconium oxide beads and 10 ml of a solution which was 2% Tetronic 908 (wt/vol %) and 1% SA9OHCO (wt/vol %). SA9OHCO is a small sugar surfactant. The suspension was roller milled in a 60 ml jar at approximately 100 rpm for 7 days. At the end of this time, the average particle size was determined to be 192 nm by light scattering using a Zetasizer III. The suspension was removed from the beads and sent for subcutaneous injection as a lymphographic agent. CT imaging was carried out using a GE Model 9800 Instrument.
# as §1
# (§5) […] as prepared in Example 1 at 5% W/V was formulated with 3% Tyloxapol by roller milling for ten days following the procedures similar to that of work example 3 and 4. The average particle size by PCS was 302 nm. The formulation was administered i.v. to colon 33 bearing mice at 0.2 ml/animal. […] As high as 700 ug (0.7% of the total dosage) WIN 67591 remained circulating in the blood 1 hour post injection. WIN 67591 was detected in the tumor tissue as early as 5 minute post injection. The drug concentration reached a maximum at 90 ug/g of tumor tissue at 6 hour post injection and maintained at a concentration of 60 ug/g in the tumor tissue for 48 hours.
# [5] = tumor tissue concentration after iv injection in mice bearing colon 33 tumor; assay type: in vivo; settings: mouse, colon 33 tumor tissue, iv; for Cmax at 6 h: read-out: maximum drug concentration in tumor tissue; for Tmax: read-out: time of maximum drug concentration in tumor tissue
# Experimental: as §2
# (§6) The formulation was administered to mice bearing colon 33 tumor by iv injection. Analysis of the tumor tissue indicated the presence of WIN 67591 in the tumor tissue as soon as 5 minutes after injection. The drug concentration reached a maximum of 90 μg/g of tumor tissue at 6 hours and maintained at a concentration of 60 μg/g of tumor tissue for 42 hours.
# as §5
# [6] = test system: colon 33 tumor tissue; assay: as above; assay type: in vivo
# Experimental: as §2, §6, §5
# [7] = test system: axillary nodes; assay: lymphography, CT imaging of axillary nodes after subcutaneous injection; assay type: in vivo, New Zealand White Rabbits; settings: 4 hours post injection, single 0.5 ml subcutaneous dose, dorsal side of forepaw
# Experimental: as §4
# [8] = biodistribution study, circulation in blood of colon 33 tumor bearing mice; assay type: in vivo; settings: Example 7, i.v. 0.2 ml/animal
# Experimental: as §2, §3, §5
compound,measurement,setting,value
COc1cc2oc(=O)cc(COC(=O)c3c(I)c(NC(C)=O)c(I)c(NC(C)=O)c3I)c2cc1OC [WIN 67591],solubility,"[1]; in water, conjugates, read-out: solubility in water",< 10 µg/mL
same,prolonged vascular residence time,[2],> 2 h
same,dead mice,[3],No dead mice
same,average particle size,"[4]; 2% Tetronic 908 and 1% SA9OHCO, roller milled 7 days, light scattering, Zetasizer III",192 nm
same,average particle size by PCS,"[4]; 5% W/V with 3% Tyloxapol, roller milling ten days",302 nm
same,average particle size,"[4]; 5.2% Tetronic 908 in sterilized distilled water, rolled 7 days",173 nm
same,Cmax at 6 h,"[5]; Example 7, at 6 hour post injection, i.v. 0.2 ml/animal",90000 ng/g
same,concentration at 48 h,"[5]; Example 7, for 48 hours, i.v. 0.2 ml/animal, read-out: concentration maintained in tumor tissue",60000 ng/g
same,Tmax,"[5]; Example 7, i.v. 0.2 ml/animal",6 h
same,Cmax at 6 h,"[5]; Example 5, at 6 hours",90000 ng/g
same,concentration at 42 h,"[5]; Example 5, for 42 hours, read-out: concentration maintained in tumor tissue",60000 ng/g
same,Tmax,[5]; Example 5,6 h
same,time for which tumor concentration of 60 μg/g was maintained,"[6]; Example 5, iv",42 h
same,tumor tissue concentration versus average therapeutic dosage of oncologics,"[6]; Example 5, iv",exceeds the average therapeutic dosage of oncologics
same,time at which drug is present in tumor tissue,"[6]; Example 5, iv, 5% w/v in 3% Tyloxapol",≤ 5 min
same,time at which drug is detected in tumor tissue,"[6]; Example 7, HPLC, i.v. 0.2 ml/animal",≤ 5 min
same,time for which tumor concentration of 60 ug/g was maintained,"[6]; Example 7, i.v. 0.2 ml/animal",48 h
same,enhancement of the axillary nodes (CT),[7],clear enchancement of the axillary nodes
same,amount remaining circulating in the blood,[8]; 1 hour post injection,700 µg
same,share of total dosage remaining circulating in the blood,[8]; 1 hour post injection,0.7%
same,blood circulation,[8],prolonged blood circulation
COc1ccc2c(COC(=O)c3c(I)c(NC(C)=O)c(I)c(NC(C)=O)c3I)cc(=O)oc2c1 [WIN 67638],solubility,[1]; water,< 10 µg/mL
"CC(=O)Nc1c(I)c(NC(C)=O)c(I)c(C(=O)O)c1I [sodium ditriazoate, sodium diatrizoate, reference compound]",solubility,"[1]; in water, starting materials, read-out: water solubility",> 1000 µg/mL
sodium methoxy coumarin,water solubility,[1]; water,> 1000 µg/mL

# Reference: patent US5665330A, “Dual purposed diagnostic/therapeutic agent having a tri-iodinated benzoyl group linked to a coumarin” (Nano Systems LLC, priority 1995, dated 1997)
